Data from US20180303807A1, “ANDROGEN RECEPTOR LIGANDS” (DUKE UNIVERSITY, priority 2015, published 2018).
Where a chain is given by its changes, count along the chain named.

Columns and labels:
Type in all cases: cell-based
AR [1] = target: T1, AR (Homo sapiens, UniProt P10275); assay: Reporter gene assay, AR transcriptional (MMTV-Luc) in CV1 cells; settings: pcDNA-AR + MMTV-Luc, 0.1 nM R1881 plus test compound, 24 hrs, read-out: B1 = AR transcriptional IC50 (μM) in CV1 cells
T1 construct: expressed in transfected cells; host or cells: CV1 cells
T1 sequence (P10275 1-920): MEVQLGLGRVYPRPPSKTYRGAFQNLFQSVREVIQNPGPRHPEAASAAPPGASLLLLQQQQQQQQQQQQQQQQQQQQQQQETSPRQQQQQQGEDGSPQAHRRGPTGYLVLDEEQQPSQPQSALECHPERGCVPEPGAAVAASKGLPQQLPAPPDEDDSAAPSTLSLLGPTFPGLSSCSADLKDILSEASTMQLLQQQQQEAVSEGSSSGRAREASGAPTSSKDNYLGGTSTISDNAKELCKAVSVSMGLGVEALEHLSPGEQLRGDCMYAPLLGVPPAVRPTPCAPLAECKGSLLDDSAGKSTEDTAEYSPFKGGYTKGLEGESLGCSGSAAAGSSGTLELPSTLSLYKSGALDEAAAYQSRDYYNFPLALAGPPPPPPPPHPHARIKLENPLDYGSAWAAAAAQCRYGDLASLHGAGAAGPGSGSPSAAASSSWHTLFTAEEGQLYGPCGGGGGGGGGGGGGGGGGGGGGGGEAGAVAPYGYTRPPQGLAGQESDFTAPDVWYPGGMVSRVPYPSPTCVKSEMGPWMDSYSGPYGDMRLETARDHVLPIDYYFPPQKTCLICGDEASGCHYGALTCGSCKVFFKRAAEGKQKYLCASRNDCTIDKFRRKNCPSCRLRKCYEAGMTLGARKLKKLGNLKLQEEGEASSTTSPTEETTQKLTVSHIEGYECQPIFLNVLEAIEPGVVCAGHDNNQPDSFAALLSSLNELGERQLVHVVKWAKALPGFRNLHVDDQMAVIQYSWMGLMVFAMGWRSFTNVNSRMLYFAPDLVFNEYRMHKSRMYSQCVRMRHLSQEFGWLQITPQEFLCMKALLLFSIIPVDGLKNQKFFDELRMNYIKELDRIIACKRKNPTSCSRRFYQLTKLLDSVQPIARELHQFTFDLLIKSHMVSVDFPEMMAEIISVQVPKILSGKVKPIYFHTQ
How it was run: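 CV1 cells transiently co-transfected with human AR, MMTV-Luc reporter and Renilla-Luc (transfection efficiency and toxicity read-out), then stimulated 24 h with 0.1 nM R1881 plus increasing test compound concentrations. Firefly and Renilla luciferase quantified by dual-luciferase assay; IC50 derived from concentration-response.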

AR [2] = target: T2, AR (Homo sapiens, UniProt P10275, T878A); assay: In Cell Western AR degradation assay in LNCaP cells; settings: 18 hrs, greater than 50% degradation at 10 μM (method says 20 μM)
T2 construct: endogenous in cells; host or cells: LNCaP cells
T2 sequence (P10275 1-920 T878A): T1 sequence (P10275 1-920) with T878A
How it was run: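 After 48 h plating in RPMI with 8% CFS, LNCaP cells were exposed to 20 μM test compound for 18 h, fixed with 3.7% formaldehyde and permeabilized. AR was detected with anti-AR N20 antibody and an infrared secondary, imaged by LI-COR Odyssey and normalized to DRAQ5 DNA stain.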

CV1 cells = assay: Toxicity of test compound in the CV1 reporter gene assay (Renilla-Luc)

| Structure (SMILES) | IC50 (AR [1]) [µM] | B9 = AR degradation in LNCaP cells (In-Cell Western) (AR [2]) | B2 = % Toxicity of test compound (20 μM) (CV1 cells) [%] | B3 = % Toxicity of test compound (60 μM) (CV1 cells) [%] |
| --- | --- | --- | --- | --- |
| O=C1CCCC2=C1C(c1ccc([N+](=O)[O-])cc1)c1c(ccc3ccccc13)N2 (stereo not drawn) [Compound A1, 12-(4-nitrophenyl)-8,9,10,12-tetrahydrobenzo[a]acridin-11(7H)-one] | 4.4 | Degrader (Compounds that degrade AR (greater than 50% degradation at 10 μM) are indicated) | 32 | 87 |
| CC1CC(=O)C2=C(C1)Nc1ccc3ccccc3c1C2c1ccc(F)cc1 (stereo not drawn) [Compound A4] | 2.6 | Degrader (Compounds that degrade AR (greater than 50% degradation at 10 μM) are indicated) | 0 | 51 |
| O=C1CCCC2=C1Nc1ccc3ccccc3c1C2c1ccc([N+](=O)[O-])cc1 (stereo not drawn) [Compound A10] | 5.7 | Degrader (Compounds that degrade AR (greater than 50% degradation at 10 μM) are indicated) | 17 | 88 |
